We go through 29 compounds from patent US12624018B1, “Inhibitors of RIPK2 and medical uses thereof” (Odyssey Therapeutics, Inc., priority 2022, dated 2026).

The target of this test is T1, RIPK2 enzyme (Homo sapiens, UniProt O43353).
T1 construct: purchased Carna 09-128
Description: RIPK2 inhibition (ADP-Glo Kinase Assay). The test is classed as biochemical. The conditions noted are these: RIPK2 5 nM, ATP 150 μM, MBP substrate, read-out: RIPK2 IC50. In short, it runs like this:
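Swine MBP substrate; compound and 5 nM RIPK2 first mixed for 30 min at room temperature; buffer pH 7.5 HEPES 50 mM with 10 mM MgCl2, 2 mM DTT, 1 mM EGTA, Brij-35, BSA.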

T1 sequence (O43353 1-299 limits assumed): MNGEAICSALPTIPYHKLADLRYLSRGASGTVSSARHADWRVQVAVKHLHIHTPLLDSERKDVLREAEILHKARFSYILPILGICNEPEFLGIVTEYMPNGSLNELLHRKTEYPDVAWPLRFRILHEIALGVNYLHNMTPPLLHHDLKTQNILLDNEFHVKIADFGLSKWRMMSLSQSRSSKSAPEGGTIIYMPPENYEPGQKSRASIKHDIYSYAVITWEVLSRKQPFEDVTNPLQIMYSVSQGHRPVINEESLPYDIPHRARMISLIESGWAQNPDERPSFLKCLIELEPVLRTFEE

Consider `CC(C)(C)n1cc(NC(=O)Cc2ccc(Oc3ncnc4ccc(OC5COC5)cc34)cc2F)cn1` [Compound 49, N-(1-(tert-butyl)-1H-pyrazol-4-yl)-2-(2-fluoro-4-((6-(oxetan-3-yloxy)quinazolin-4-yl)oxy)phenyl) acetamide], for which the IC50 was determined as 18.5 nM.

Regarding `COCCOc1ccc2ncnc(Oc3ccc(CC(=O)Nc4cnn(C(C)(C)C)c4)c(F)c3)c2c1` [Compound 50, N-(1-(tert-butyl)-1H-pyrazol-4-yl)-2-(2-fluoro-4-((6-(2-methoxy-ethoxy)quinazolin-4-yl)oxy)phenyl) acetamide], the IC50 came to 15.4 nM.

Regarding `CC(C)(C)n1cc(NC(=O)Cc2ncc(Oc3ncnc4ccc(OC5CCNCC5)cc34)cc2F)cn1` [Compound 51, N-(1-(tert-butyl)-1H-pyrazol-4-yl)-2-(3-fluoro-5-((6-(piperidin-4-yloxy)quinazolin-4-yl)oxy)pyridin-2-yl)acetamide], the IC50 was 18.7 nM.

`CC(C)(C)c1cc(NC(=O)Cc2ncc(Oc3ncnc4ccc(F)cc34)cc2F)ncn1` [Compound 52, N-(6-(tert-butyl)pyrimidin-4-yl)-2-(3-fluoro-5-((6-fluoroquinazolin-4-yl)oxy)pyridin-2-yl)acetamide]: the IC50 turned out to be 54.1 nM.

For the compound `Cc1nc(NC(=O)Cc2ncc(Oc3ncnc4ccc(F)cc34)cc2F)cc(C(C)(C)C)n1` [Compound 53, N-(6-(tert-butyl)-2-methylpyrimidin-4-yl)-2-(3-fluoro-5-((6-fluoroquinazolin-4-yl)oxy)pyridin-2-yl)acetamide], the IC50 came out at 225 nM.

Take `Cc1cc(CC(=O)Nc2cc(C(C)(C)C)ncn2)ccc1Oc1ncnc2ccc(F)cc12` [Compound 54, N-(6-(tert-butyl)pyrimidin-4-yl)-2-(4-((6-fluoroquinazolin-4-yl)oxy)-3-methylphenyl) acetamide]: the half-maximal inhibitory concentration (IC50) was determined as 54.1 nM.

For `Cc1cc(CC(=O)Nc2cc(C(C)(C)C)cnn2)ccc1Oc1ncnc2ccc(F)cc12` [Compound 55, N-(5-(tert-butyl)pyridazin-3-yl)-2-(4-((6-fluoroquinazolin-4-yl)oxy)-3-methylphenyl) acetamide], the IC50 turned out to be 24.5 nM.

Turning to `CCN1CCC(Oc2ccc3ncnc(Oc4cnc(CC(=O)Nc5cnn(C(C)(C)C)c5)c(F)c4)c3c2)CC1` [Compound 56, N-(1-(tert-butyl)-1H-pyrazol-4-yl)-2-(5-((6-((1-ethylpiperidin-4-yl)oxy)quinazolin-4-yl)oxy)-3-fluoropyridin-2-yl)acetamide], the half-maximal inhibitory concentration (IC50) turned out to be 4.9 nM.

In the case of `CN1CCC(Oc2ccc3ncnc(Oc4cnc(CC(=O)Nc5cc(C(C)(C)C)[nH]n5)c(F)c4)c3c2)CC1` [Compound 57, N-(5-(tert-butyl)-1H-pyrazol-3-yl)-2-(3-fluoro-5-((6-((1-methylpiperidin-4-yl)oxy)quinazolin-4-yl)oxy)pyridin-2-yl)acetamide], the 50% inhibitory concentration (IC50) was less than 2.5 nM.

As to `CC(C)(C)c1cc(NC(=O)Cc2ncc(Oc3ncnc4ccc(OC5CCNCC5)cc34)cc2F)n[nH]1` [Compound 58, N-(5-(tert-butyl)-1H-pyrazol-3-yl)-2-(3-fluoro-5-((6-(piperidin-4-yloxy)quinazolin-4-yl)oxy)pyridin-2-yl)acetamide], the IC50 is 3.7 nM.

As for `CN1CC[C@H](Oc2ccc3ncnc(Oc4cnc(CC(=O)Nc5cnn(C(C)(C)C)c5)c(F)c4)c3c2)C1` [Compound 59, (S)-N-(1-(tert-butyl)-1H-pyrazol-4-yl)-2-(3-fluoro-5-((6-((1-methylpyrrolidin-3-yl)oxy)quinazolin-4-yl)oxy)pyridin-2-yl)acetamide], the 50% inhibitory concentration (IC50) came to 41.5 nM.

Regarding `CN1CC[C@@H](Oc2ccc3ncnc(Oc4cnc(CC(=O)Nc5cnn(C(C)(C)C)c5)c(F)c4)c3c2)C1` [Compound 60, (R)-N-(1-(tert-butyl)-1H-pyrazol-4-yl)-2-(3-fluoro-5-((6-((1-methylpyrrolidin-3-yl)oxy)quinazolin-4-yl)oxy)pyridin-2-yl)acetamide], the concentration for half-maximal inhibition (IC50) was 45.7 nM.

As for `CN1CCC(COc2ccc3ncnc(Oc4cnc(CC(=O)Nc5cnn(C(C)(C)C)c5)c(F)c4)c3c2)CC1` [Compound 61, N-(1-(tert-butyl)-1H-pyrazol-4-yl)-2-(3-fluoro-5-((6-((1-methylpiperidin-4-yl)methoxy)quinazolin-4-yl)oxy)pyridin-2-yl)acetamide], the IC50 is 13.3 nM.

For `CN1[C@@H]2CC[C@H]1C[C@@H](Oc1ccc3ncnc(Oc4cnc(CC(=O)Nc5cnn(C(C)(C)C)c5)c(F)c4)c3c1)C2` [Compound 62, N-(1-(tert-butyl)-1H-pyrazol-4-yl)-2-(3-fluoro-5-((6-(((1R,3r,5S)-8-methyl-8-azabicyclo [3.2.1]octan-3-yl)oxy)quinazolin-4-yl)oxy)pyridin-2-yl)acetamide], the concentration for half-maximal inhibition (IC50) stood at 13.2 nM.

For the compound `CC(C)(C)n1cc(NC(=O)Cc2ncc(Oc3ncnc4ccc(O[C@@H]5CCOC5)cc34)cc2F)cn1` [Compound 63, (R)-N-(1-(tert-butyl)-1H-pyrazol-4-yl)-2-(3-fluoro-5-((6-((tetrahydrofuran-3-yl)oxy)quinazolin-4-yl)oxy)pyridin-2-yl)acetamide], the half-maximal inhibitory concentration (IC50) turned out to be 37.3 nM.

Take `CC(C)(C)n1cc(NC(=O)Cc2ncc(Oc3ncnc4ccc(O[C@H]5CCOC5)cc34)cc2F)cn1` [Compound 64, (S)-N-(1-(tert-butyl)-1H-pyrazol-4-yl)-2-(3-fluoro-5-((6-((tetrahydrofuran-3-yl)oxy)quinazolin-4-yl)oxy)pyridin-2-yl)acetamide]: the 50% inhibitory concentration (IC50) was found to be 67.5 nM.

Take `CC(C)(C)c1cc(NC(=O)Cc2ccc(Oc3ccnc4ccc(S(C)(=N)=O)cc34)cc2F)[nH]n1` (centres unmarked) [Compound 65, N-(5-(tert-butyl)-1H-pyrazol-3-yl)-2-(2-fluoro-4-((6-(S-methylsulfonimidoyl)quinolin-4-yl)oxy)phenyl) acetamide]: the IC50 was less than 2.5 nM.

Consider `CC(C)(C)n1cc(NC(=O)Cc2ccc(Oc3ccnc4ccc(S5(=O)=NCCC5)cc34)cc2F)cn1` (centres unmarked) [Compound 66, N-(1-(tert-butyl)-1H-pyrazol-4-yl)-2-(2-fluoro-4-((6-(1-oxido-4,5-dihydro-3H-1λ^6-isothiazol-1-yl)quinolin-4-yl)oxy)phenyl) acetamide], for which the IC50 was less than 2.5 nM.

In the case of `CC(C)(C)n1cc(NC(=O)Cc2ccc(Oc3ccnc4ccc(S5(=O)=NCCCC5)cc34)cc2F)cn1` (centres unmarked) [Compound 67, N-(1-(tert-butyl)-1H-pyrazol-4-yl)-2-(2-fluoro-4-((6-(1-oxido-3,4,5,6-tetrahydro-1λ^6,2-thiazin-1-yl)quinolin-4-yl)oxy)phenyl)acetamide], the 50% inhibitory concentration (IC50) was less than 2.5 nM.

`CC(C)(C)n1cc(NC(=O)Cc2ccc(Oc3ccnc4ccc(NS(C)(=O)=O)cc34)cc2F)cn1` [Compound 68, N-(1-(tert-butyl)-1H-pyrazol-4-yl)-2-(2-fluoro-4-((6-(methylsulfonamido)quinolin-4-yl)oxy)phenyl)acetamide]: the IC50 was less than 2.5 nM.

`CC(C)(C)n1cc(NC(=O)Cc2ccc(Oc3ccnc4ccc(S(C)(=O)=NC#N)cc34)cc2F)cn1` (centres unmarked) [Compound 71, N-(1-(tert-butyl)-1H-pyrazol-4-yl)-2-(4-((6-(N-cyano-S-methylsulfonimidoyl)quinolin-4-yl)oxy)-2-fluorophenyl)acetamide]: the IC50 was 9.1 nM.

For `CC(C)(C)n1cc(NC(=O)Cc2ccc(Oc3ccnc4ccc(S(=N)(=O)C5CC5)cc34)cc2F)cn1` (centres unmarked) [Compound 72, N-(1-(tert-butyl)-1H-pyrazol-4-yl)-2-(4-((6-(cyclopropanesulf-onimidoyl)quinolin-4-yl)oxy)-2-fluorophenyl) acetamide], the concentration for half-maximal inhibition (IC50) is less than 2.5 nM.

As for `CCS(=N)(=O)c1ccc2nccc(Oc3ccc(CC(=O)Nc4cnn(C(C)(C)C)c4)c(F)c3)c2c1` (centres unmarked) [Compound 73, N-(1-(tert-butyl)-1H-pyrazol-4-yl)-2-(4-((6-(ethylsulfonimidoyl)quinolin-4-yl)oxy)-2-fluorophenyl) acetamide], the half-maximal inhibitory concentration (IC50) came out at 3.2 nM.

As to `CCS(=O)(=NC)c1ccc2nccc(Oc3ccc(CC(=O)Nc4cnn(C(C)(C)C)c4)c(F)c3)c2c1` (centres unmarked) [Compound 74, N-(1-(tert-butyl)-1H-pyrazol-4-yl)-2-(2-fluoro-4-((6-(N-methylethylsulfonimidoyl)quinolin-4-yl)oxy)phenyl)acetamide], the IC50 amounted to 4 nM.

For the compound `CC(C)(C)n1cc(NC(=O)Cc2ccc(Oc3ccnc4ccc(CS(C)(=O)=O)cc34)cc2F)cn1` [Compound 75, N-(1-(tert-butyl)-1H-pyrazol-4-yl)-2-(2-fluoro-4-((6-((methylsulfonyl)methyl)quinolin-4-yl)oxy)phenyl)acetamide], the IC50 is less than 2.5 nM.

`Cc1cc(CC(=O)Nc2cnn(C(C)(C)C)c2)ccc1Oc1ccnc2ccc(S(C)(=N)=O)cc12` (centres unmarked) [Compound 76, N-(1-(tert-butyl)-1H-pyrazol-4-yl)-2-(3-methyl-4-((6-(S-methylsulfonimidoyl)quinolin-4-yl)oxy)phenyl) acetamide]: the 50% inhibitory concentration (IC50) was less than 2.5 nM.

As for `CN=S(C)(=O)c1ccc2nccc(Oc3ccc(CC(=O)Nc4cnn(C(C)(C)C)c4)cc3C)c2c1` (centres unmarked) [Compound 77, N-(1-(tert-butyl)-1H-pyrazol-4-yl)-2-(4-((6-(N,S-dimethylsulfonimidoyl)quinolin-4-yl)oxy)-3-methylphenyl)acetamide], the IC50 is less than 2.5 nM.

For `CN1CCC(Oc2ccc3nccc(Oc4ccc(CC(=O)Nc5cnn(C(C)(C)C)c5)c(F)c4)c3c2)CC1` [Compound 79, N-(1-(tert-butyl)-1H-pyrazol-4-yl)-2-(2-fluoro-4-((6-((1-methyl-piperidin-4-yl)oxy)quinolin-4-yl)oxy)phenyl) acetamide], the IC50 was less than 2.5 nM.

In the case of `CC(C)(C)n1cc(NC(=O)Cc2ncc(Oc3ccnc4ccc(OC5CCNCC5)cc34)cc2F)cn1` [Compound 80, N-(1-(tert-butyl)-1H-pyrazol-4-yl)-2-(3-fluoro-5-((6-(piperidin-4-yloxy)quinolin-4-yl)oxy)pyridin-2-yl)acetamide], the half-maximal inhibitory concentration (IC50) was found to be 3.5 nM.
